Data set [1] is described as follows: Molar enthalpy of transition or fusion.

± gives the expanded uncertainty stated by the source.

Consider `CC12CC3CC(C1)CC(C)(C3)C2` [1,3-dimethyladamantane], for which the Triple point temperature is, setting by setting: (Crystal 1) 247.79 ± 0.16 K; (Crystal 2) 223.38 ± 0.16 K. The “Molar enthalpy of transition or fusion” value in data set [1] (Crystal 1) is 0.368 ± 0.0098 kcal/mol; in data set [1] (Crystal 2), 2.225 ± 0.00717 kcal/mol.

With `CCC12CC3CC(CC(C3)C1)C2` [1-ethyladamantane], the Triple point temperature (Crystal) was 225.56 ± 0.16 K. Further, in data set [1] (Crystal), the “Molar enthalpy of transition or fusion” value was found to be 2.696 ± 0.012 kcal/mol.
